Experimental findings from ChEMBL document CHEMBL3396972, “Synthesis and biological evaluation of DAPY-DPEs hybrids as non-nucleoside inhibitors of HIV-1 reverse transcriptase” (Bioorg Med Chem, 2015) are described below.

For data set [1], the system named is Human immunodeficiency virus 1. Briefly: Antiviral activity against wild type HIV-1 3B infected in human MT4 cells assessed as reduction of virus-induced cytopathic effect after 5 days by MTT assay. It counts as functional, organism-based. To be noted: Human immunodeficiency virus 1, 3B, MT4, 120 h. On the technique in general: Damage to the host cells serves as the signal in cytopathic effect assays.

Data set [2] has as its system Human immunodeficiency virus 1. Briefly: Antiviral activity against HIV-1 RES056 harboring reverse transcriptase K103N/Y181C double mutant infected in human MT4 cells assessed as reduction of virus-induced cytopathic effect after 5 days by MTT assay. It counts as functional, organism-based. To be noted: Human immunodeficiency virus 1, RES056, MT4, 120 h.
In data set [3] the test system is Human immunodeficiency virus 2. Briefly: Antiviral activity against wild type HIV-2 ROD infected in human MT4 cells assessed as reduction of virus-induced cytopathic effect after 5 days by MTT assay. It is filed as functional, organism-based. To be noted: Human immunodeficiency virus 2, ISOLATE ROD, MT4, 120 h.
Data set [4] in a line: Cytotoxicity against human MT4 cells after 5 days MTT assay. It is filed as cell-based. (Formazan colour is commonly taken as a measure of viable cells.)
The nature of data set [5]: Selectivity index, ratio of CC50 for human MT4 cells to EC50 for wild type HIV-1 3B infected in human MT4 cells. It counts as toxicity, cell-based. To be noted: read-out: Ratio CC50/EC50.
Data set [6] has as its target Human immunodeficiency virus type 1 reverse transcriptase (Human immunodeficiency virus 1, UniProt Q72547). Description: Inhibition of wild type HIV1 p66/p51 reverse transcriptase by spectrofluorometry.

The term EC50 denotes the concentration needed to bring the measured effect to its halfway point. What is called CC50 is the concentration giving 50% cytotoxicity. A high value points to better tolerance by the cells. What is called IC50 is the point on the concentration scale where inhibition reaches its midpoint. Higher therefore signals lower potency. As to `Cc1cnc(Nc2ccc(C#N)cc2)nc1OCC(=O)Nc1cccc(Cl)c1`, the EC50 in data set [1] was 0.05 µM; in data set [2] it was more than 144 µM; in data set [3] it was more than 144 µM. Besides, the CC50 at 120 h in data set [4] came out at 144 µM. Further, the selectivity ratio in data set [5] stood at 2890. This compound also gave an IC50 in data set [6] of 0.16 µM.

Turning to `Cc1cnc(Nc2ccc(C#N)cc2)nc1OCC(=O)Nc1ccccc1F`, the figures for the EC50 in data set [1], in data set [2] and in data set [3] were 0.013 µM, more than 331 µM and more than 331 µM, respectively. For the same compound, in data set [4], the CC50 at 120 h is more than 331 µM. In data set [5], the selectivity ratio is more than 25200. Moreover, the IC50 in data set [6] came to 0.083 µM.

`N#Cc1ccc(Nc2nccc(OCC(=O)Nc3ccc(C#N)cc3F)n2)cc1`: the EC50 in data set [1], in data set [2] and in data set [3] was more than 322 µM each time. In data set [4], this compound yielded a CC50 at 120 h of more than 322 µM.

In the case of `Cc1cc(OCC(=O)Nc2ccc(C#N)cc2)nc(Nc2ccc(C#N)cc2)n1`, the EC50 in data set [1] and in data set [3] was more than 325 µM each time. In data set [4], this compound registered a CC50 at 120 h of more than 325 µM.

For the compound `Cc1cnc(Nc2ccc(C#N)cc2)nc1OCC(=O)Nc1ccc(Br)cc1`, the EC50 in data set [1], in data set [2] and in data set [3] was more than 34.7 µM each time. Further, the midpoint of cytotoxicity in data set [4], the CC50 at 120 h, lay at 34.7 µM. Also, the selectivity ratio in data set [5] was less than 1.

For the compound `Cc1cnc(Nc2ccc(C#N)cc2)nc1OCC(=O)Nc1ccc(C#N)cc1`, the half-maximal effective concentration (EC50) in data set [1] is 2.42 µM; in data set [2], more than 48.4 µM; in data set [3], more than 48.4 µM. The 50% cytotoxic concentration (CC50) at 120 h in data set [4] is not below 48.4 µM. Further, the selectivity ratio in data set [5] is not below 20. The IC50 in data set [6] worked out at 17.6 µM.

In the case of `COc1ccc(NC(=O)COc2ccnc(Nc3ccc(C#N)cc3)n2)cc1`, the EC50 is 49.1 µM in data set [1], more than 333 µM in data set [2] and more than 333 µM in data set [3]. Moreover, the CC50 at 120 h in data set [4] was more than 333 µM. In data set [5], the selectivity ratio was more than 7. Further, the midpoint of inhibition in data set [6], the IC50, lay at 24.6 µM.

With `Cc1ccnc2c1NC(=O)c1cccnc1N2C1CC1` [NEVIRAPINE], the EC50 in data set [2] is not below 7.59 µM. This compound had a CC50 at 120 h in data set [4] of more than 15 µM.

For `Cc1cnc(Nc2ccc(C#N)cc2)nc1OCC(=O)Nc1ccc(Cl)cc1`, the concentration for a half-maximal effect (EC50) in data set [1], in data set [2] and in data set [3] was more than 317 µM in each case. Besides, the CC50 at 120 h in data set [4] was more than 317 µM.

With `Cc1cc(OCC(=O)Nc2ccc(F)cc2)nc(Nc2ccc(C#N)cc2)n1`, the EC50 in data set [1], in data set [2] and in data set [3] was more than 331 µM each time. The compound also came in with a CC50 at 120 h in data set [4] of more than 331 µM.

On to `Cc1cc(OCC(=O)Nc2ccc(Cl)cc2)nc(Nc2ccc(C#N)cc2)n1`, for which the EC50 in data set [1] was more than 2.63 µM; in data set [2], 2.63 µM; in data set [3], 2.63 µM. The same compound registered a CC50 at 120 h in data set [4] of 2.63 µM. Moreover, the selectivity ratio in data set [5] is less than 1.

Turning to `CC(C)Nc1cccnc1N1CCN(C(=O)c2cc3cc(NS(C)(=O)=O)ccc3[nH]2)CC1` [DELAVIRDINE], the concentration giving a half-maximal response (EC50) was 0.65 µM in data set [1] and more than 43.8 µM in data set [2]. This compound also displayed a CC50 at 120 h in data set [4] of more than 43.8 µM. For the same compound, in data set [5], the selectivity ratio was more than 67.

Regarding `N#Cc1ccc(NC(=O)COc2ccnc(Nc3ccc(C#N)cc3)n2)cc1`, the values for the EC50 in data set [1], in data set [2] and in data set [3] were not below 35.1 µM, more than 338 µM and more than 338 µM, respectively. Further, the half-maximal cytotoxic concentration (CC50) at 120 h in data set [4] is more than 338 µM. The same compound displayed an IC50 in data set [6] of 23.9 µM.

On to `O=C1Nc2ccc(Cl)cc2[C@@](C#CC2CC2)(C(F)(F)F)O1` [EFAVIRENZ], for which the EC50 in data set [1] was 0.0062 µM. This compound registered a half-maximal cytotoxic concentration (CC50) at 120 h in data set [4] of more than 6.34 µM.

As for `Cc1cc(OCC(=O)Nc2ccc([N+](=O)[O-])cc2)nc(Nc2ccc(C#N)cc2)n1`, the EC50 in data set [1] and in data set [3] was more than 309 µM in each case. The compound further had a CC50 at 120 h in data set [4] of more than 309 µM.

In the case of `N#Cc1ccc(Nc2nccc(OCC(=O)Nc3ccc([N+](=O)[O-])cc3)n2)cc1`, the EC50 in data set [1], in data set [2] and in data set [3] was more than 320 µM in each case. Further, in data set [4], the CC50 at 120 h was more than 320 µM.

For the compound `N#Cc1ccc(Nc2nccc(OCC(=O)Nc3ccc(F)cc3)n2)cc1`, the concentration for a half-maximal effect (EC50) in data set [1], in data set [2] and in data set [3] was more than 344 µM in each case. This compound had a 50% cytotoxic concentration (CC50) at 120 h in data set [4] of more than 344 µM.

Consider `Nc1ccn([C@@H]2CS[C@H](CO)O2)c(=O)n1` [LAMIVUDINE], for which, in data set [4], the CC50 at 120 h was more than 87.2 µM. Further, the selectivity ratio in data set [5] was more than 39.

`N#Cc1ccc(Nc2nccc(OCC(=O)Nc3ccc(Cl)cc3)n2)cc1`: the EC50 in data set [1] is 19.2 µM; in data set [2] it was more than 162 µM; in data set [3], 162 µM. The same compound gave a CC50 at 120 h in data set [4] of 162 µM. Further, the selectivity ratio in data set [5] worked out at 8. In data set [6], this compound showed an IC50 of 26.9 µM.

`Cc1cc(C#N)cc(C)c1Oc1nc(Nc2ccc(C#N)cc2)nc(N)c1Br` [ETRAVIRINE]: the results for the EC50 in data set [1], in data set [2] and in data set [3] were 0.0017 µM, 0.013 µM and more than 13.3 µM, respectively. In data set [4], the CC50 at 120 h was 13.3 µM. For the same compound, in data set [5], the selectivity ratio is 7680.

Regarding `Cc1cc(OCC(=O)Nc2ccc(C#N)cc2F)nc(Nc2ccc(C#N)cc2)n1`, the concentration for a half-maximal effect (EC50) in data set [1] and in data set [3] was more than 311 µM throughout. The same compound showed a CC50 at 120 h in data set [4] of more than 311 µM.

In the case of `Cc1cn([C@H]2C[C@H](N=[N+]=[N-])[C@@H](CO)O2)c(=O)[nH]c1=O` [ZIDOVUDINE], the EC50 stood at 0.01 µM in data set [2] and 0.0066 µM in data set [3]. Further, the CC50 at 120 h in data set [4] is more than 93.5 µM.

For `N#Cc1ccc(Nc2nccc(OCC(=O)Nc3cccc(Cl)c3)n2)cc1`, the EC50 in data set [1] was 0.035 µM; in data set [2], more than 329 µM; in data set [3] it was more than 329 µM. In addition, in data set [4], the CC50 at 120 h is more than 329 µM. The selectivity ratio in data set [5] was more than 9340. In data set [6], this compound had a 50% inhibitory concentration (IC50) of 0.12 µM.

Consider `Cc1cnc(Nc2ccc(C#N)cc2)nc1OCC(=O)Nc1ccc([N+](=O)[O-])cc1`, for which the EC50 in data set [1], in data set [2] and in data set [3] was more than 66.3 µM in each case. In data set [4], half-maximal cytotoxicity (CC50 at 120 h) was put at 66.3 µM. For the same compound, the selectivity ratio in data set [5] was less than 1.

As for `Cc1cc(OCC(=O)Nc2ccc(Br)cc2)nc(Nc2ccc(C#N)cc2)n1`, the EC50 is more than 0.93 µM in data set [1] and 0.93 µM in data set [3]. The same compound yielded a cytotoxic concentration (CC50) at 120 h in data set [4] of 0.93 µM. Besides, in data set [5], the selectivity ratio was less than 1.

Consider `Cc1cnc(Nc2ccc(C#N)cc2)nc1OCC(=O)Nc1ccccc1Cl`, for which the 50% effective concentration (EC50) in data set [1] is 0.017 µM; in data set [2] it was more than 197 µM; in data set [3], more than 197 µM. Further, the CC50 at 120 h in data set [4] is 197 µM. In addition, the selectivity ratio in data set [5] came to 11300. This compound also displayed an IC50 in data set [6] of 0.046 µM.

Turning to `Cc1cc(OCC(=O)Nc2cccc(Cl)c2)nc(Nc2ccc(C#N)cc2)n1`, the EC50 in data set [1] was 0.17 µM; in data set [2], more than 32.1 µM; in data set [3], more than 32.1 µM. Also, it took 32.1 µM to reach half-maximal cytotoxicity in data set [4] (CC50 at 120 h). Besides, the selectivity ratio in data set [5] was 197. In data set [6], inhibition was half-maximal at 0.54 µM (IC50).

`Cc1cnc(Nc2ccc(C#N)cc2)nc1OCC(=O)Nc1ccc(F)cc1`: the EC50 in data set [1] was not below 34.5 µM; in data set [2] it was more than 331 µM; in data set [3], more than 331 µM. In data set [4], this compound showed a CC50 at 120 h of more than 331 µM. 18.9 µM corresponded to half-maximal inhibition in data set [6] (IC50).

`O=c1[nH]cnc2c1ncn2[C@H]1CC[C@@H](CO)O1` [DIDANOSINE] registered a CC50 at 120 h in data set [4] of more than 212 µM. Further, the selectivity ratio in data set [5] is more than 9.

For `Cc1cnc(Nc2ccc(C#N)cc2)nc1OCC(=O)Nc1ccc(C#N)cc1F`, the concentration for a half-maximal effect (EC50) in data set [1] is 3.03 µM; in data set [2], more than 311 µM; in data set [3], more than 311 µM. This compound yielded a CC50 at 120 h in data set [4] of more than 311 µM. In data set [5], the selectivity ratio is more than 102. This compound came in with an IC50 in data set [6] of 12 µM.
